From ChEMBL document CHEMBL1201862, “PubChem BioAssay data set” (2004)
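Following 48 hours of exposure in 96-well plates, responses at five concentrations were used to interpolate endpoints linearly. The concentration for 50% growth inhibition is given as GI50.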 The source made the active and inactive calls. No stated cut-off is given here; in the data, active = GI50 up to about 1.1 µM and inactive = higher.

How the values were obtained:
Test in all cases: NCI anticancer screen, dose series, 48 h
A549 = test system: A549
CCRF-CEM = test system: CCRF-CEM
EKVX = test system: EKVX
HCC 2998 = test system: HCC 2998
HOP-62 = test system: HOP-62
Malme-3M = test system: Malme-3M
NCI-H23 = test system: NCI-H23
OVCAR-3 = test system: OVCAR-3
SF-268 = test system: SF-268
SF-295 = test system: SF-295
SK-MEL-28 = test system: SK-MEL-28
SK-MEL-2 = test system: SK-MEL-2
SK-OV-3 = test system: SK-OV-3
SW-620 = test system: SW-620
UO-31 = test system: UO-31
M14 = test system: M14
NCI-H522 = test system: NCI-H522
SR = test system: SR

Measured: GI50

COCOc1ccc(OC)cc1
inactive: A549 > 100 µM | CCRF-CEM > 100 µM | EKVX > 100 µM | HCC 2998 > 100 µM | HOP-62 > 100 µM | Malme-3M > 100 µM | NCI-H23 > 100 µM | OVCAR-3 > 100 µM | SF-268 > 100 µM | SF-295 > 100 µM | SK-MEL-28 > 100 µM | SK-MEL-2 > 100 µM | SK-OV-3 > 100 µM | SW-620 > 100 µM | UO-31 > 100 µM

O=C1NCCCC12CCCNC2=O
inactive: A549 > 100 µM | CCRF-CEM > 100 µM | EKVX > 100 µM | HCC 2998 > 100 µM | HOP-62 > 100 µM | M14 > 100 µM | Malme-3M > 100 µM | NCI-H23 > 100 µM | NCI-H522 > 100 µM | OVCAR-3 > 100 µM | SF-268 > 100 µM | SF-295 > 100 µM | SK-MEL-28 > 100 µM | SK-OV-3 > 100 µM | SR > 100 µM | SW-620 > 100 µM | UO-31 > 100 µM

CCC1N2CCCCC2[C@@H]2c3[nH]c4ccccc4c3CCN12 (stereo not given in full)
inactive: A549 > 100 µM | CCRF-CEM > 100 µM | EKVX > 100 µM | HCC 2998 > 100 µM | HOP-62 > 100 µM | M14 > 100 µM | Malme-3M > 100 µM | NCI-H23 > 100 µM | NCI-H522 > 100 µM | OVCAR-3 > 100 µM | SF-268 > 100 µM | SF-295 > 100 µM | SK-MEL-28 > 100 µM | SK-MEL-2 > 100 µM | SK-OV-3 > 100 µM | SW-620 > 100 µM | UO-31 > 100 µM

N/C(=N\O)N/N=C/c1ccc2c(c1)OCCO2
inactive: A549 4.7 µM | CCRF-CEM 33.7 µM | EKVX 9.27 µM | HOP-62 19.8 µM | NCI-H23 25.6 µM | NCI-H522 6.65 µM | OVCAR-3 3.15 µM | SF-268 4.81 µM | SF-295 6.59 µM | SK-MEL-28 21.4 µM | SK-MEL-2 9.08 µM | SK-OV-3 34 µM | SW-620 28.2 µM | UO-31 8.65 µM

Cc1cccc(NC(=O)C(=O)C(C(=O)c2ccccc2F)C2OC(=O)c3ccccc32)c1Cl (stereo not given)
inactive: A549 36.4 µM | CCRF-CEM 23.3 µM | EKVX 37.9 µM | HCC 2998 22.5 µM | HOP-62 37.4 µM | M14 43.1 µM | NCI-H23 24.2 µM | NCI-H522 22.4 µM | SF-268 21.4 µM | SF-295 36.4 µM | SK-MEL-28 35.1 µM | SK-MEL-2 16.8 µM | SK-OV-3 37.2 µM | SR 26.5 µM | SW-620 42.5 µM | UO-31 37.2 µM

CC1(c2ccc(F)cc2)C(C#N)C(=O)NC(=O)C1C#N (stereo not given)
inactive: A549 > 100 µM | CCRF-CEM > 100 µM | EKVX 58.1 µM | HCC 2998 > 100 µM | HOP-62 75.2 µM | M14 > 100 µM | Malme-3M > 100 µM | NCI-H23 > 100 µM | NCI-H522 > 100 µM | OVCAR-3 > 100 µM | SF-268 > 100 µM | SF-295 > 100 µM | SK-MEL-28 > 100 µM | SK-MEL-2 > 100 µM | SK-OV-3 > 100 µM | SW-620 > 100 µM | UO-31 83.8 µM

O/N=C/c1ncccc1C1OCCO1
inactive: A549 > 100 µM | CCRF-CEM > 100 µM | EKVX > 100 µM | HOP-62 > 100 µM | M14 > 100 µM | Malme-3M > 100 µM | NCI-H23 > 100 µM | NCI-H522 > 100 µM | OVCAR-3 > 100 µM | SF-268 > 100 µM | SF-295 > 100 µM | SK-MEL-28 > 100 µM | SK-MEL-2 > 100 µM | SK-OV-3 > 100 µM | SR > 100 µM | SW-620 > 100 µM | UO-31 > 100 µM

CC/C=C\C/C=C\C/C=C\CCCCCCCC(=O)OCC
inactive: A549 > 100 µM | CCRF-CEM > 100 µM | EKVX > 100 µM | HCC 2998 > 100 µM | HOP-62 > 100 µM | M14 > 100 µM | Malme-3M > 100 µM | NCI-H23 > 100 µM | OVCAR-3 > 100 µM | SF-268 > 100 µM | SF-295 > 100 µM | SK-MEL-28 > 100 µM | SK-MEL-2 > 100 µM | SK-OV-3 > 100 µM | SR > 100 µM | SW-620 > 100 µM | UO-31 > 100 µM
